Results as given in PubChem BioAssay (NCI).
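48-hour exposure; five concentrations; linearly interpolated endpoints. GI50 = concentration required for 50% inhibition of growth. TGI: concentration producing complete growth inhibition.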

Tests used:
Experiment in all cases: DTP human tumour cell line panel, 48 h
SN12C renal = system: SN12C renal
SNB-19 CNS = system: SNB-19 CNS
NCI-H226 lung = system: NCI-H226 lung
EKVX NSCLC = system: EKVX NSCLC
LOX IMVI melanoma = system: LOX IMVI melanoma
MDA-MB-435 = system: MDA-MB-435
OVCAR-4 ovarian = system: OVCAR-4 ovarian
COLO 205 colon = system: COLO 205 colon
MOLT-4 leukemia = system: MOLT-4 leukemia
ACHN renal = system: ACHN renal
HCC-2998 colon = system: HCC-2998 colon
NCI-H522 lung = system: NCI-H522 lung
SF-539 CNS = system: SF-539 CNS
PC-3 prostate = system: PC-3 prostate
DU-145 prostate = system: DU-145 prostate
HOP-62 NSCLC = system: HOP-62 NSCLC
IGROV1 ovarian = system: IGROV1 ovarian
UO-31 renal = system: UO-31 renal
HT29 colon = system: HT29 colon
SNB-75 CNS = system: SNB-75 CNS
SF-295 CNS = system: SF-295 CNS
A498 renal = system: A498 renal
OVCAR-5 ovarian = system: OVCAR-5 ovarian
HCT-116 colon = system: HCT-116 colon
MDA-MB-231 breast = system: MDA-MB-231 breast
SK-MEL-2 melanoma = system: SK-MEL-2 melanoma
BT-549 breast = system: BT-549 breast
HL-60(TB) leukemia = system: HL-60(TB) leukemia
RPMI-8226 leukemia = system: RPMI-8226 leukemia
SF-268 CNS = system: SF-268 CNS
786-0 renal = system: 786-0 renal
M14 melanoma = system: M14 melanoma
OVCAR-3 ovarian = system: OVCAR-3 ovarian
NCI-H23 lung = system: NCI-H23 lung
SK-MEL-5 melanoma = system: SK-MEL-5 melanoma
RXF 393 renal = system: RXF 393 renal
MCF7 breast = system: MCF7 breast
HS 578T breast = system: HS 578T breast
UACC-257 melanoma = system: UACC-257 melanoma
HOP-92 NSCLC = system: HOP-92 NSCLC
SW-620 colon = system: SW-620 colon
MALME-3M melanoma = system: MALME-3M melanoma
NCI-H460 lung = system: NCI-H460 lung
T-47D breast = system: T-47D breast
OVCAR-8 ovarian = system: OVCAR-8 ovarian
CCRF-CEM leukemia = system: CCRF-CEM leukemia
SK-OV-3 ovarian = system: SK-OV-3 ovarian
MDA-MB-468 breast = system: MDA-MB-468 breast
UACC-62 melanoma = system: UACC-62 melanoma
SK-MEL-28 melanoma = system: SK-MEL-28 melanoma
TK-10 renal = system: TK-10 renal
CAKI-1 renal = system: CAKI-1 renal
U251 CNS = system: U251 CNS
KM12 colon = system: KM12 colon
NCI/ADR-RES ovarian = system: NCI/ADR-RES ovarian
A549 NSCLC = system: A549 NSCLC

In the case of CCCCSc1nc(Nc2ccc(S(N)(=O)=O)cc2)c(C#N)c(-c2ccc(Cl)cc2)n1, the GI50 (SN12C renal) is reported as 2.08 µM, the TGI (SN12C renal) is reported as 8.71 µM and the GI50 (SNB-19 CNS) is reported as 3.65 µM. The TGI (SNB-19 CNS) was 15.7 µM, the GI50 (NCI-H226 lung) was 2.29 µM and the TGI (NCI-H226 lung) was 6 µM. For the same compound, the GI50 (EKVX NSCLC) was 3.51 µM, the TGI (EKVX NSCLC) was 19.7 µM and the GI50 (LOX IMVI melanoma) was 1.72 µM. It also gave a TGI (LOX IMVI melanoma) of 3.33 µM, a GI50 (MDA-MB-435) of 4.01 µM and a TGI (MDA-MB-435) of over 100 µM. It also gave a GI50 (OVCAR-4 ovarian) of 1.83 µM, a TGI (OVCAR-4 ovarian) of 3.89 µM and a GI50 (COLO 205 colon) of 13.4 µM. The TGI (COLO 205 colon) was 42.9 µM, the GI50 (MOLT-4 leukemia) was 3.15 µM and the TGI (MOLT-4 leukemia) was 20.1 µM. For the same compound, the GI50 (ACHN renal) was 1.88 µM, the TGI (ACHN renal) was 3.67 µM and the GI50 (HCC-2998 colon) was 6.56 µM. The TGI (HCC-2998 colon) was 78.3 µM, the GI50 (NCI-H522 lung) was 10.6 µM and the TGI (NCI-H522 lung) was 70.5 µM. It also gave a GI50 (SF-539 CNS) of 1.62 µM, a TGI (SF-539 CNS) of 3.23 µM and a GI50 (PC-3 prostate) of 5.39 µM. It also gave a TGI (PC-3 prostate) of 26 µM, a GI50 (DU-145 prostate) of 4.95 µM and a TGI (DU-145 prostate) of 18 µM. For the same compound, the GI50 (HOP-62 NSCLC) was 2.18 µM, the TGI (HOP-62 NSCLC) was 4.97 µM and the GI50 (IGROV1 ovarian) was 5.79 µM. It also gave a TGI (IGROV1 ovarian) of 41.3 µM, a GI50 (UO-31 renal) of 2 µM and a TGI (UO-31 renal) of 6.33 µM. It also gave a GI50 (HT29 colon) of 2.73 µM, a TGI (HT29 colon) of 9.84 µM and a GI50 (SNB-75 CNS) of 1.1 µM. The TGI (SNB-75 CNS) was 3.22 µM, the GI50 (SF-295 CNS) was 1.82 µM and the TGI (SF-295 CNS) was 3.78 µM. For the same compound, the GI50 (A498 renal) was 6.41 µM, the TGI (A498 renal) was 27.8 µM and the GI50 (OVCAR-5 ovarian) was 4.77 µM. For the same compound, the TGI (OVCAR-5 ovarian) was 22.9 µM, the GI50 (HCT-116 colon) was 2 µM and the TGI (HCT-116 colon) was 4.35 µM. The GI50 (MDA-MB-231 breast) was 2.14 µM, the TGI (MDA-MB-231 breast) was 5.3 µM and the GI50 (SK-MEL-2 melanoma) was 27.6 µM. For the same compound, the TGI (SK-MEL-2 melanoma) was over 100 µM, the GI50 (BT-549 breast) was 17.9 µM and the TGI (BT-549 breast) was 62 µM. The GI50 (HL-60(TB) leukemia) was 50.6 µM, the TGI (HL-60(TB) leukemia) was over 100 µM and the GI50 (RPMI-8226 leukemia) was 5.17 µM. The TGI (RPMI-8226 leukemia) was over 100 µM, the GI50 (SF-268 CNS) was 5.64 µM and the TGI (SF-268 CNS) was 42.1 µM. For the same compound, the GI50 (786-0 renal) was 1.98 µM, the TGI (786-0 renal) was 5.11 µM and the GI50 (M14 melanoma) was 2.36 µM. The TGI (M14 melanoma) was 6.09 µM, the GI50 (OVCAR-3 ovarian) was 2.23 µM and the TGI (OVCAR-3 ovarian) was 4.91 µM. It also gave a GI50 (NCI-H23 lung) of 3.43 µM, a TGI (NCI-H23 lung) of 12.4 µM and a GI50 (SK-MEL-5 melanoma) of 8.46 µM. For the same compound, the TGI (SK-MEL-5 melanoma) was 33.5 µM, the GI50 (RXF 393 renal) was 1.81 µM and the TGI (RXF 393 renal) was 5.12 µM. The GI50 (MCF7 breast) was 4.59 µM, the TGI (MCF7 breast) was over 100 µM and the GI50 (HS 578T breast) was 2.46 µM. The TGI (HS 578T breast) was 8.71 µM, the GI50 (UACC-257 melanoma) was 14.9 µM and the TGI (UACC-257 melanoma) was over 100 µM. The GI50 (HOP-92 NSCLC) was 1.01 µM, the TGI (HOP-92 NSCLC) was 4.71 µM and the GI50 (SW-620 colon) was 3.3 µM. It also gave a TGI (SW-620 colon) of 12.4 µM, a GI50 (MALME-3M melanoma) of 3.03 µM and a TGI (MALME-3M melanoma) of 11 µM. The GI50 (NCI-H460 lung) was 2.08 µM, the TGI (NCI-H460 lung) was 4.66 µM and the GI50 (T-47D breast) was 19.9 µM. For the same compound, the TGI (T-47D breast) was over 100 µM, the GI50 (OVCAR-8 ovarian) was 2.08 µM and the TGI (OVCAR-8 ovarian) was 4.93 µM. The GI50 (CCRF-CEM leukemia) was 7.69 µM, the TGI (CCRF-CEM leukemia) was over 100 µM and the GI50 (SK-OV-3 ovarian) was 3.63 µM. The TGI (SK-OV-3 ovarian) was 14.1 µM, the GI50 (MDA-MB-468 breast) was 14.5 µM and the TGI (MDA-MB-468 breast) was 36.1 µM. The GI50 (UACC-62 melanoma) was 2.8 µM, the TGI (UACC-62 melanoma) was 8.98 µM and the GI50 (SK-MEL-28 melanoma) was 5.98 µM. For the same compound, the TGI (SK-MEL-28 melanoma) was 31.1 µM, the GI50 (TK-10 renal) was 2.32 µM and the TGI (TK-10 renal) was 6.86 µM. For the same compound, the GI50 (CAKI-1 renal) was 1.94 µM, the TGI (CAKI-1 renal) was 4.8 µM and the GI50 (U251 CNS) was 1.58 µM. The TGI (U251 CNS) was 3.28 µM, the GI50 (KM12 colon) was 6.26 µM and the TGI (KM12 colon) was 30.2 µM. For the same compound, the GI50 (NCI/ADR-RES ovarian) was 2.98 µM, the TGI (NCI/ADR-RES ovarian) was 9.58 µM and the GI50 (A549 NSCLC) was 2.61 µM. For the same compound, the TGI (A549 NSCLC) was 9.81 µM.
